# Laboratory results reported in ChEMBL document CHEMBL1149949, “Nonpeptidic HIV protease inhibitors: 3-(S-benzyl substituted)-4-hydroxy-6-(phenyl substituted)-2H-pyran-2-one with an inverse mode of binding” (Bioorg Med Chem Lett, 1996).
# Target: Human immunodeficiency virus type 1 protease (Human immunodeficiency virus 1, UniProt Q72874)
# Assay: In vitro inhibitory activity against HIV-1 protease(PR).
row,IC50,SMILES
1,4580 nM,Cc1ccc(CSc2c(O)cc(-c3ccccc3)oc2=O)cc1
2,740 nM,COc1ccc(-c2cc(O)c(SCc3ccccc3)c(=O)o2)cc1C
3,3420 nM,O=c1cc(-c2ccccc2)oc(O)c1SCc1ccc2c(c1)OCCO2
4,19300 nM,COC(=O)c1cccc(CSc2c(O)cc(-c3ccccc3)oc2=O)c1
5,250 nM,Cc1cc(-c2cc(O)c(SCc3ccccc3)c(=O)o2)cc(C)c1O
6,> 10000 nM,COC(=O)c1ccc(CSc2c(O)cc(-c3ccccc3)oc2=O)cc1
7,790 nM,O=c1cc(-c2ccc3c(c2)OCCO3)oc(O)c1SCc1ccccc1
8,50 nM,O=C(OC1CCCC1)c1ccccc1CSc1c(O)oc(-c2ccccc2)cc1=O
9,6000 nM,O=c1cc(-c2ccccc2O)oc(O)c1SCc1ccccc1
10,24800 nM,O=C(O)c1ccccc1CSc1c(O)cc(-c2ccccc2)oc1=O
11,690 nM,O=c1cc(-c2ccc(O)cc2)oc(O)c1SCc1ccccc1
12,14200 nM,Cc1ccccc1-c1cc(O)c(SCc2ccccc2)c(=O)o1
13,2540 nM,O=c1cc(-c2ccccc2Cl)oc(O)c1SCc1ccccc1
14,260 nM,Cc1cc(C)cc(-c2cc(O)c(SCc3ccccc3)c(=O)o2)c1
15,690 nM,O=c1cc(-c2cccc(Cl)c2)oc(O)c1SCc1ccccc1
16,860 nM,Cc1cccc(-c2cc(O)c(SCc3ccccc3)c(=O)o2)c1
17,990 nM,COc1cccc(-c2cc(O)c(SCc3ccccc3)c(=O)o2)c1
18,6150 nM,O=C(O)c1cccc(CSc2c(O)cc(-c3ccccc3)oc2=O)c1

row,IC50,SMILES
1,360 nM,O=C(O)c1ccc(-c2cc(O)c(SCc3ccccc3)c(=O)o2)cc1
2,1200 nM,O=C(OC1CCCCC1)c1ccccc1CSc1c(O)oc(-c2ccccc2)cc1=O
3,1700 nM,O=c1cc(-c2ccccc2)oc(O)c1SCc1ccccc1
4,12300 nM,Cc1ccc(-c2cc(O)c(SCc3ccccc3)c(=O)o2)cc1
5,1000 nM,COC(=O)c1ccccc1CSc1c(O)cc(-c2ccccc2)oc1=O
6,8540 nM,Cc1cccc(CSc2c(O)cc(-c3ccccc3)oc2=O)c1
7,> 100000 nM,COC(=O)c1ccc(-c2cc(O)c(SCc3ccccc3)c(=O)o2)cc1
8,190 nM,CC(C)(C)NC(=O)c1ccccc1CSc1c(O)cc(-c2ccccc2)oc1=O
9,1190 nM,O=c1cc(-c2cccc(O)c2)oc(O)c1SCc1ccccc1
10,619 nM,CC(C)COC(=O)c1ccccc1CSc1c(O)cc(-c2ccccc2)oc1=O
11,2040 nM,CCc1cccc(-c2cc(O)c(SCc3ccccc3)c(=O)o2)c1
12,1630 nM,COc1ccc(-c2cc(O)c(SCc3ccccc3)c(=O)o2)cc1
13,630 nM,O=c1cc(-c2cc(C(F)(F)F)cc(C(F)(F)F)c2)oc(O)c1SCc1ccccc1
14,34 nM,CC(C)OC(=O)c1ccccc1CSc1c(O)cc(-c2ccccc2)oc1=O
15,600 nM,O=c1cc(-c2cccc(C(F)(F)F)c2)oc(O)c1SCc1ccccc1
16,5370 nM,Cc1ccccc1CSc1c(O)cc(-c2ccccc2)oc1=O
17,10200 nM,O=C(O)c1ccc(CSc2c(O)cc(-c3ccccc3)oc2=O)cc1
18,2140 nM,O=c1cc(-c2cccc(OC(F)(F)F)c2)oc(O)c1SCc1ccccc1
